Measurements published in US20210038515A1 (Azurity Pharmaceuticals, Inc., priority 2014, published 2021).

Tested on: Clostridium difficile
Assay: Agar dilution MIC of vancomycin preparations (Sigma, Cutis), diluent, Na benzoate and Na citrate
Assay type: cell-based
Conditions: for MIC, AV (average): average of triplicate; for MIC, VAN-1: replicate 1; for MIC, VAN-2: replicate 2; for MIC, VAN-3: replicate 3
Experimental: Introduction: The purpose of the study was to compare the MICs obtained with the formulation of vancomycin HCL of the invention (Cutis) to formulations obtained using a vancomycin HCL reference standard powder obtained from Sigma. The Example also involves the analysis of a solution or diluent to determine if it has antimicrobial activity at the concentrations present in the agar dilution test.
The C. difficile were tested by agar dilution according to the procedures in the Clinical and Laboratory Standards Institute. 2012. Methods for antimicrobial susceptibility testing of anaerobic bacteria; approved standard-seventh edition.
Other anaerobic organisms included clinical isolates of Bifidobacterium adolescentis and Bacteroides fragilis. Clostridium difficile ATCC 700057 was included as a quality control strain.
The C. difficile isolates were recovered from patients with CDI during the past two years and stored at −70° C. in 20% skim milk. Ribotyping was performed by another reference laboratory. The strains were taken from the freezer and subcultured at least twice to ensure purity and good growth.
On the day of testing, they were suspended in Brucella broth to the turbidity of the 0.5 McFarland standard for testing.
Stock solution of the Sigma vancomycin was prepared in water and stored at −70° C. On the day of testing, it was thawed and further diluted in water to obtain the desired range of 16-0.125 μg/ml. The Cutis vancomycin (25 mg/ml) was reconstituted on the day of testing and further diluted for a final range of 16-0.125 μg/ml in the test. The antimicrobials were added to molten Brucella agar supplemented with vitamin K and hemin to prepare the plates. Drug-free growth controls were included for testing before and after each set of plates. All testing was done in triplicate.
The organisms were pipetted into the wells of the Steers replicator head and applied to the plates with the multi-pronged replicator. The final concentration of organisms was ˜10^5 CFU/spot.
The plates were incubated in the anaerobic chamber incubator for 44 h and examined for growth.
The Cutis diluent comprises: water, about 0.12% (w/v) citric acid (anhydrous), 0.2% (w/v) sucralose, about 0.05% (w/v) artificial grape flavor, 0.1% (w/v) sodium benzoate, about 0.0002% (w/v) D&C Yellow No. 10 and about 0.000038% (w/v) FD&C Red No. 40.

[1] = ATCC 700057 quality control strain, first set (r41)
[2] = ATCC 700057 quality control strain, second set (r74)

CN[C@H](CC(C)C)C(=O)N[C@H]1C(=O)N[C@@H](CC(N)=O)C(=O)N[C@H]2C(=O)N[C@H]3C(=O)N[C@H](C(=O)N[C@H](C(=O)O)c4cc(O)cc(O)c4-c4cc3ccc4O)[C@H](O)c3ccc(c(Cl)c3)Oc3cc2cc(c3O[C@@H]2O[C@H](CO)[C@@H](O)[C@H](O)[C@H]2O[C@H]2C[C@](C)(N)[C@H](O)[C@H](C)O2)Oc2ccc(cc2Cl)[C@H]1O.Cl [Sigma]
MIC, AV (average) [1]: 2 µg/mL | MIC, VAN-1 [1]: 2 µg/mL | MIC, VAN-2 [1]: 2 µg/mL | MIC, VAN-3 [1]: 2 µg/mL | MIC, AV (average) [2]: 2 µg/mL | MIC, VAN-1 [2]: 2 µg/mL | MIC, VAN-2 [2]: 2 µg/mL | MIC, VAN-3 [2]: 2 µg/mL | MIC, AV (average) (RMA 24504, ribotype 027): 2 µg/mL | MIC, VAN-1 (RMA 24504, ribotype 027): 2 µg/mL | MIC, VAN-2 (RMA 24504, ribotype 027): 2 µg/mL | MIC, VAN-3 (RMA 24504, ribotype 027): 2 µg/mL | MIC, AV (average) (RMA 24510, ribotype 027): 1.7 µg/mL | MIC, VAN-1 (RMA 24510, ribotype 027): 2 µg/mL | MIC, VAN-2 (RMA 24510, ribotype 027): 2 µg/mL | MIC, VAN-3 (RMA 24510, ribotype 027): 1 µg/mL | MIC, AV (average) (RMA 24519, ribotype 027): 1.7 µg/mL | MIC, VAN-1 (RMA 24519, ribotype 027): 2 µg/mL | MIC, VAN-2 (RMA 24519, ribotype 027): 2 µg/mL | MIC, VAN-3 (RMA 24519, ribotype 027): 1 µg/mL | MIC, AV (average) (RMA 24527, ribotype 014): 2 µg/mL | MIC, VAN-1 (RMA 24527, ribotype 014): 2 µg/mL | MIC, VAN-2 (RMA 24527, ribotype 014): 2 µg/mL | MIC, VAN-3 (RMA 24527, ribotype 014): 2 µg/mL | MIC, AV (average) (RMA 24529, ribotype 014): 2 µg/mL | MIC, VAN-1 (RMA 24529, ribotype 014): 2 µg/mL | MIC, VAN-2 (RMA 24529, ribotype 014): 2 µg/mL | MIC, VAN-3 (RMA 24529, ribotype 014): 2 µg/mL | MIC, AV (average) (RMA 24541, ribotype 020): 1.7 µg/mL | MIC, VAN-1 (RMA 24541, ribotype 020): 1 µg/mL | MIC, VAN-2 (RMA 24541, ribotype 020): 2 µg/mL | MIC, VAN-3 (RMA 24541, ribotype 020): 2 µg/mL | MIC, AV (average) (RMA 24543, ribotype 020): 1.3 µg/mL | MIC, VAN-1 (RMA 24543, ribotype 020): 1 µg/mL | MIC, VAN-2 (RMA 24543, ribotype 020): 1 µg/mL | MIC, VAN-3 (RMA 24543, ribotype 020): 2 µg/mL | MIC, AV (average) (RMA 24547, ribotype 014): 1 µg/mL | MIC, VAN-1 (RMA 24547, ribotype 014): 1 µg/mL | MIC, VAN-2 (RMA 24547, ribotype 014): 1 µg/mL | MIC, VAN-3 (RMA 24547, ribotype 014): 1 µg/mL | MIC, AV (average) (RMA 24560, ribotype 078): 1.7 µg/mL | MIC, VAN-1 (RMA 24560, ribotype 078): 2 µg/mL | MIC, VAN-2 (RMA 24560, ribotype 078): 2 µg/mL | MIC, VAN-3 (RMA 24560, ribotype 078): 1 µg/mL | MIC, AV (average) (RMA 24561, ribotype 078): 2 µg/mL | MIC, VAN-1 (RMA 24561, ribotype 078): 2 µg/mL | MIC, VAN-2 (RMA 24561, ribotype 078): 2 µg/mL | MIC, VAN-3 (RMA 24561, ribotype 078): 2 µg/mL | MIC, AV (average) (RMA 24567, ribotype 020): 2 µg/mL | MIC, VAN-1 (RMA 24567, ribotype 020): 2 µg/mL | MIC, VAN-2 (RMA 24567, ribotype 020): 2 µg/mL | MIC, VAN-3 (RMA 24567, ribotype 020): 2 µg/mL | MIC, AV (average) (RMA 24575, ribotype 078): 2.7 µg/mL | MIC, VAN-1 (RMA 24575, ribotype 078): 2 µg/mL | MIC, VAN-2 (RMA 24575, ribotype 078): 4 µg/mL | MIC, VAN-3 (RMA 24575, ribotype 078): 2 µg/mL | MIC, AV (average) (RMA 24594, ribotype 106): 3.3 µg/mL | MIC, VAN-1 (RMA 24594, ribotype 106): 4 µg/mL | MIC, VAN-2 (RMA 24594, ribotype 106): 2 µg/mL | MIC, VAN-3 (RMA 24594, ribotype 106): 4 µg/mL | MIC, AV (average) (RMA 24601, ribotype 106): 2 µg/mL | MIC, VAN-1 (RMA 24601, ribotype 106): 2 µg/mL | MIC, VAN-2 (RMA 24601, ribotype 106): 2 µg/mL | MIC, VAN-3 (RMA 24601, ribotype 106): 2 µg/mL | MIC, AV (average) (RMA 24605, ribotype 002): 2 µg/mL | MIC, VAN-1 (RMA 24605, ribotype 002): 2 µg/mL | MIC, VAN-2 (RMA 24605, ribotype 002): 2 µg/mL | MIC, VAN-3 (RMA 24605, ribotype 002): 2 µg/mL | MIC, AV (average) (RMA 24607, ribotype 106): 2 µg/mL | MIC, VAN-1 (RMA 24607, ribotype 106): 2 µg/mL | MIC, VAN-2 (RMA 24607, ribotype 106): 2 µg/mL | MIC, VAN-3 (RMA 24607, ribotype 106): 2 µg/mL | MIC, AV (average) (RMA 24608, ribotype 002): 2 µg/mL | MIC, VAN-1 (RMA 24608, ribotype 002): 2 µg/mL | MIC, VAN-2 (RMA 24608, ribotype 002): 2 µg/mL | MIC, VAN-3 (RMA 24608, ribotype 002): 2 µg/mL | MIC, AV (average) (RMA 24615, ribotype 005): 2 µg/mL | MIC, VAN-1 (RMA 24615, ribotype 005): 2 µg/mL | MIC, VAN-2 (RMA 24615, ribotype 005): 2 µg/mL | MIC, VAN-3 (RMA 24615, ribotype 005): 2 µg/mL | MIC, AV (average) (RMA 24628, ribotype 012): 2 µg/mL | MIC, VAN-1 (RMA 24628, ribotype 012): 2 µg/mL | MIC, VAN-2 (RMA 24628, ribotype 012): 2 µg/mL | MIC, VAN-3 (RMA 24628, ribotype 012): 2 µg/mL | MIC, AV (average) (RMA 24641, ribotype 001/072): 2 µg/mL | MIC, VAN-1 (RMA 24641, ribotype 001/072): 2 µg/mL | MIC, VAN-2 (RMA 24641, ribotype 001/072): 2 µg/mL | MIC, VAN-3 (RMA 24641, ribotype 001/072): 2 µg/mL | MIC, AV (average) (RMA 24643, ribotype 001/072): 2 µg/mL | MIC, VAN-1 (RMA 24643, ribotype 001/072): 2 µg/mL | MIC, VAN-2 (RMA 24643, ribotype 001/072): 2 µg/mL | MIC, VAN-3 (RMA 24643, ribotype 001/072): 2 µg/mL | MIC, AV (average) (RMA 24646, ribotype 001/072): 2 µg/mL | MIC, VAN-1 (RMA 24646, ribotype 001/072): 2 µg/mL | MIC, VAN-2 (RMA 24646, ribotype 001/072): 2 µg/mL | MIC, VAN-3 (RMA 24646, ribotype 001/072): 2 µg/mL | MIC, AV (average) (RMA 24655, ribotype 005): 2 µg/mL | MIC, VAN-1 (RMA 24655, ribotype 005): 2 µg/mL | MIC, VAN-2 (RMA 24655, ribotype 005): 2 µg/mL | MIC, VAN-3 (RMA 24655, ribotype 005): 2 µg/mL | MIC, AV (average) (RMA 24678, ribotype 012): 4 µg/mL | MIC, VAN-1 (RMA 24678, ribotype 012): 4 µg/mL | MIC, VAN-2 (RMA 24678, ribotype 012): 4 µg/mL | MIC, VAN-3 (RMA 24678, ribotype 012): 4 µg/mL | MIC, AV (average) (RMA 24683, ribotype 027): 2 µg/mL | MIC, VAN-1 (RMA 24683, ribotype 027): 2 µg/mL | MIC, VAN-2 (RMA 24683, ribotype 027): 2 µg/mL | MIC, VAN-3 (RMA 24683, ribotype 027): 2 µg/mL
